Results from ChEMBL document CHEMBL1141478, “Lysianadioic acid, a carboxypeptidase B inhibitor from Lysiana subfalcata” (Bioorg Med Chem Lett, 2008).

Biological target: T1, Carboxypeptidase B (Homo sapiens, UniProt P15086)
T1 sequence (P15086 whole entry): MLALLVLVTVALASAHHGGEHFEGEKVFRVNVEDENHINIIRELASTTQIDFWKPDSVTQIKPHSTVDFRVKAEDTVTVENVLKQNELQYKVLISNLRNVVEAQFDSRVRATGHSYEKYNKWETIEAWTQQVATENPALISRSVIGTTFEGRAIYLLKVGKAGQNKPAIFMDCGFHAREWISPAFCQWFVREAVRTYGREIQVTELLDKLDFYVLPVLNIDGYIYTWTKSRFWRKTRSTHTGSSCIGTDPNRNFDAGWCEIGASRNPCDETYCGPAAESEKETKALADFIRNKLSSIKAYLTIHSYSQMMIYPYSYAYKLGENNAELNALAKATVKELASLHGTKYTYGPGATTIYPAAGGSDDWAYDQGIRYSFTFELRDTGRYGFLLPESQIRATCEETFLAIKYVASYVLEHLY
Assay: Inhibition of carboxypeptidase B

- IC50: 360 nM
Compound: N=C(N)NCC/C=C(/CC(=O)O)C(=O)O [LYSIANADIOIC ACID]
